Laboratory results published in article PMC4550851, “Potential analgesic effects of a novel N-acylethanolamine acid amidase inhibitor F96 through PPAR-α” (Scientific Reports, 2015).

Assays:
Assay type in all cases: biochemical
[1] = target: T1, N-acylethanolamine acid amidase (NAAA) (Homo sapiens, UniProt Q02083); experiment: enzyme activity assay, IC50
T1 sequence (Q02083 29-125): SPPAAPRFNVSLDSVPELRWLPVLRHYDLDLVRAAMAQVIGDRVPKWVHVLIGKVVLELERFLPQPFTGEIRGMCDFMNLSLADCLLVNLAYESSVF
T1 sequence (Q02083 126-359): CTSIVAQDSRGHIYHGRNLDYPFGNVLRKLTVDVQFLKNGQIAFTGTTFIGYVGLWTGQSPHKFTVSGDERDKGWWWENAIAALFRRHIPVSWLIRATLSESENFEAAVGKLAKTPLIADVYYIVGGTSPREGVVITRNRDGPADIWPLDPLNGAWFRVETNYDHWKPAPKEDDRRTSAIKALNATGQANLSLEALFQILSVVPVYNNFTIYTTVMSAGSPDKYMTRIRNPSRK

[2] = target: T2, FAAH (Rattus norvegicus, UniProt P97612); experiment: enzyme activity assay with extracted recombinant rFAAH, anandamide substrate (selectivity counter-assay)
T2 construct: extracted recombinant rat FAAH (rFAAH)
T2 sequence (P97612 1-579): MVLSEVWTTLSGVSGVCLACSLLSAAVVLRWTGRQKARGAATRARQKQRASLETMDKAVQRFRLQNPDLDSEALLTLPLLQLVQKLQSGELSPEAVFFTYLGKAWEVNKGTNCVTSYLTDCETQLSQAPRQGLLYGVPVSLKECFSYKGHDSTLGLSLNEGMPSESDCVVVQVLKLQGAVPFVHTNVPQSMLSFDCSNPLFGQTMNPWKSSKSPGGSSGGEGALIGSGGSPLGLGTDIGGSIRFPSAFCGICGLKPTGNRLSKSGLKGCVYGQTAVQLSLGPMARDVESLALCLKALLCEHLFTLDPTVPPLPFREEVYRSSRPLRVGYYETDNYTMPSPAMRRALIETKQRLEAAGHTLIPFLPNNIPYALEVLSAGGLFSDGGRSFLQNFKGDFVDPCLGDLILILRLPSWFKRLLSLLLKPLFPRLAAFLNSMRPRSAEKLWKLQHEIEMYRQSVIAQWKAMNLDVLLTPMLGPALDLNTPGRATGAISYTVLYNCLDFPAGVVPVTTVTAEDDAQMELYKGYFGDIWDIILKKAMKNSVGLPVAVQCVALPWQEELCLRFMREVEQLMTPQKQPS

[3] = target: T3, N-acylethanolamine acid amidase (NAAA) (Rattus norvegicus, UniProt Q5KTC7); experiment: enzyme activity assay with extracted recombinant rNAAA, heptadecenoylethanolamide substrate, concentration-response
T3 construct: extracted recombinant rat NAAA (rNAAA)
T3 sequence (Q5KTC7 34-130): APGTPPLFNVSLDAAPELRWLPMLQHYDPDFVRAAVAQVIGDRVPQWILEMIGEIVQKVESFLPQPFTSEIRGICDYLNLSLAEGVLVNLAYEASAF
T3 sequence (Q5KTC7 131-362): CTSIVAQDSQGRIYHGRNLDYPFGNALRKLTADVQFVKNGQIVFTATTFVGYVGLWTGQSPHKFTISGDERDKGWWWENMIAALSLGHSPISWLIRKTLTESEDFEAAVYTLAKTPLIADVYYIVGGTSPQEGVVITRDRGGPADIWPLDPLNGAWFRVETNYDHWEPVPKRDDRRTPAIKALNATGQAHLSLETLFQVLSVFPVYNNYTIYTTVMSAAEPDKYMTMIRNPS

IC50 [1]: 269 ± 43.8 nM | IC50 [2]: 42000 ± 1920 nM | IC50 [3]: 269 ± 22.4 nM
SMILES: O=C(CCCCCc1ccccc1)N1CCOC1=O [F96, 3-(6-phenylhexanoyl)oxazolidin-2-one]
